Results from patent publication US11236122B2, “Triterpene amine derivatives” (DFH THERAPEUTICS, priority 2018, dated 2022).

How the values were obtained:
[1] = system: panel of HIV-1 isolates in human PBMCs; assay: PBMC antiviral assay against a panel of HIV-1 isolates (RT activity); assay type: cell-based; conditions: Human immunodeficiency virus 1, PBMC
Protocol: Antiviral assays. To produce HIV-1 stocks, 293T cells were transfected with WT pNL4-3 or the SP1-V7A derivative and culture supernatants were collected 24 h post transfection. RT-normalized virus supernatants were used to infect MT-4 cells at room temperature for 30 min. Cells were then cultured in the presence of serial dilutions of compounds. At 4 d post-infection, the culture supernatants were subjected to RT assay to monitor viral replication. The 50% inhibitory concentrations (IC50s) were defined as compound concentrations that reduced RT levels to 50% those measured in the absence of inhibitor (DMSO only controls) using GraphPad Prism 6 software. The IC50s in primary peripheral blood mononuclear cells (PBMCs) were calculated with a multi-clade panel of HIV-1 isolates by Southern Research Institute (Frederick, Md.). The PBMCs were stimulated with phytohemagglutinin (PHA) and IL-2 prior to use in the antiviral assays.
Virus Isolates. Compound evaluation against a panel of HIV-1 isolates were performed by the Southern Research Institute (SRI). The viruses were chosen to include one isolate from each of the seven HIV-1 Group M envelope subtypes A, B, C, D, E, F, and G, as well as isolates from HIV-1 Groups O and N. In addition, various drug resistant HIV-1 isolates were included for evaluation. The HIV-1 isolates selected include CCR5-tropic and CXCR4-tropic isolates. Unless otherwise noted, all virus isolates were obtained from the NIH AIDS Research and Reference Reagent Program. Virus isolate 1022-48 was obtained from Dr. William A. Schief of Merck Research Laboratories. MDR769 and MDR807 were obtained from Dr. Thomas C. Merigan of Stanford University. A low passage stock of each virus was prepared using fresh human PBMCs and stored in liquid nitrogen. Pre-titered aliquots of each virus were removed from the freezer and thawed rapidly to rt in a biological safety cabinet immediately before use.
(§1) Human PBMC Preparation. Fresh human PBMCs were isolated from screened donors, seronegative for HIV and HBV (Biological Specialty Corporation, Colmar, Pa.). Cells were pelleted/washed 2-3 times by low speed centrifugation and resuspension in Dulbecco's phosphate buffered saline (PBS) to remove contaminating platelets. The leukophoresed blood was then diluted 1:1 with PBS and layered over 14 mL of Ficoll-Hypaque density gradient (Lymphocyte Separation Medium, Cell Grow #85-072-CL, density 1.078+/−0.002 g/mL) in a 50 mL centrifuge tube and then centrifuged for 30 min at 600×g. Banded PBMCs were gently aspirated from the resulting interface and subsequently washed twice with PBS by low speed centrifugation. After the final wash, cells were enumerated by trypan blue exclusion and re-suspended at 1×10^6 cells/mL in RPMI 1640 supplemented with 15% Fetal Bovine Serum (FBS), 2 mM L-glutamine, 100 U/mL penicillin, […] streptomycin, and 4 μg/mL Phytohemagglutinin (PHA; Sigma, St. Louis, Mo.; cat #L1668). The cells were allowed to incubate for 48-72 h at 37° C. After incubation, PBMCs were centrifuged and resuspended in RPMI 1640 with 15% FBS, L-glutamine, penicillin, streptomycin, non-essential amino acids (MEM/NEAA; Hyclone; cat #SH30238.01), and 20 U/mL recombinant human IL-2 (R&D Systems Inc., Minneapolis, Minn.; cat #202IL). PBMCs were maintained in this medium at a concentration of 1-2×10^6 cells/mL, with twice-weekly medium changes until they were used in the assay protocol. Monocytes-derived-macrophages were depleted from the culture as the result of adherence to the tissue culture flask.
PBMC Assay. For the standard PBMC assay, PHA stimulated cells from at least two normal donors were pooled (mixed together), diluted in fresh medium to a final concentration of 1×10^6 cells/mL, and plated in the interior wells of a 96 well round bottom microplate at 50 μL/well (5×10^4 cells/well) in a standard formate developed by the Infectious Disease Research Department of the SRI. […]

pNL4-3 SP1-V7A = assay: CA-SP1 accumulation assay, SP1-V7A derivative; assay type: cell-based, HIV-1; conditions: 10 nM compound, HeLa or 293T cells
Protocol: (§2) Cell culture, plasmids and transfections. The MT-4 T-cell line was maintained in RPMI-1640 medium supplemented with 10% (vol/vol) fetal bovine serum (FBS), 2 mM glutamine, 100 U/mL penicillin and 100 μg/mL streptomycin at 37° C. in a humidified 5% CO2 atmosphere. HeLa and 293T cells were maintained in Dulbecco's modified Eagle's medium (DMEM) supplemented with 5% (vol/vol) FBS, 2 mM glutamine, 100 U/mL penicillin and 100 μg/mL streptomycin. Molecular clones used in this study were WT pNL4-3 and the derivative encoding a Val-to-Ala mutation at SP1 residue 7, referred to as SP1-V7A. The MT-4 T-cell line was transfected the DEAE/dextran procedure; HeLa and 293T cells were transfected with linear polyethylenimine (L-PEI) or Lipofectamine 2000 (Invitrogen) as recommended by the supplier.
(§3) CA-SP1 accumulation assay. For CA-SP1 accumulation assays, HeLa or 293T cells were transfected with WT pNL4-3 or the SP1-V7A derivative. At 24 h post-transfection, cells were starved in Met/Cys-free medium for 30 min and metabolically labeled with [^35S]Met/Cys-Pro-mix (Amersham) for 2-3 h. Maturation inhibitors were maintained in the cultures throughout the transfection and labeling period. Viruses were collected by ultracentrifugation at 99,000×g for 45-60 min. Virus pellets were resuspended in Triton X-100 lysis buffer [300 mM NaCl, 50 mM Tris-HCl (pH 7.5), 0.5% Triton X-100, 10 mM iodoacetamide, and protease inhibitor cocktail tablets (Roche)]. CA and CA-SP1 proteins were separated on 13.5-15% polyacrylamide gels by SDS-polyacrylamide gel electrophoresis, exposed to a phosphorimager plate (Fuji) and quantified by Quantity One software (Bio-Rad).

in vitro = assay type: cell-based; conditions: human
Protocol: as §1
(§4) PBMC Assay. For the standard PBMC assay, PHA stimulated cells from at least two normal donors were pooled (mixed together), diluted in fresh medium to a final concentration of 1×10^6 cells/mL, and plated in the interior wells of a 96 well round bottom microplate at 50 μL/well (5×10^4 cells/well) in a standard formate developed by the Infectious Disease Research Department of the SRI. Pooling (mixing) of mononuclear cells from more than one donor was used to minimize the variability observed between individual donors, which results from quantitative and qualitative differences in HIV infection and overall response to the PHA and IL-2 of primary lymphocyte populations. Each plate contains virus control wells (cells plus virus) and experimental wells (drug plus cells plus virus). Test drug dilutions were prepared at a 2× concentration in microtiter tubes and 100 μL of each concentration was placed in appropriate wells using the standard format. 50 μL of a predetermined dilution of virus stock was placed in each test well (final MOI≈0.1). Separate plates were prepared identically without virus for drug cytotoxicity studies using an MTS assay system (described below; cytotoxicity plates also include compound control wells containing drug plus media without cells to control for colored compounds that affect the MTS assay). The PBMC cultures were maintained for seven days following infection at 37° C., 5% CO2. After this period, cell-free supernatant samples were collected for analysis of reverse transcriptase activity, and compound cytotoxicity was measured by addition of MTS to the separate cytotoxicity plates for determination of cell viability. Wells were also examined microscopically and any abnormalities were noted.
(§5) MTS Staining for PBMC Viability to Measure Cytotoxicity. At assay termination, the uninfected assay plates were stained with the soluble tetrazolium-based dye MTS (CellTiter 96 Reagent, Promega) to determine cell viability and quantify compound toxicity. MTS is metabolized by the mitochondria enzymes of metabolically active cells to yield a soluble formazan product, allowing the rapid quantitative analysis of cell viability and compound cytotoxicity. […] At termination of the assay, […] of MTS reagent was added per well and the microtiter plates were then incubated at 37° C., 5% CO2 to assess cell viability. […]

human PBMCs = assay: in vitro; assay type: cell-based; conditions: 7 days
Protocol: as §1, §4, §5

WT pNL4-3 = assay: CA-SP1 accumulation assay, WT NL4-3; assay type: cell-based, HIV-1; conditions: 10 nM compound, HeLa or 293T cells
Protocol: as §2, §3

C=C(C)[C@@H]1CC[C@]2(CCNCCN3CCN(Cc4ccc(Cl)cc4)CC3)CC[C@]3(C)[C@H](CC[C@@H]4[C@@]5(C)CC[C@H](OC(=O)CC(C)(C)C(=O)O)C(C)(C)[C@@H]5CC[C@]43C)[C@@H]12 [Compound 51n, (3β)-17-[2-[[2-[4-(4-Chlorophenylmethyl)piperazin-1-yl]ethyl]amino]ethyl]-28-norlup-20(29)-en-3-ol, 3-(1-Hydrogen 2,2-Dimethylbutanedioate)]
IC50 ([1]; isolate 92RW009, PBMC): 25.9 nM | IC50 ([1]; isolate 92UG001, PBMC): 5.3 nM | IC50 ([1]; isolate 93BR020, PBMC): 12.8 nM | IC50 ([1]; isolate 93BR029, PBMC): 18.4 nM | IC50 ([1]; isolate 93IN101, PBMC): 23.3 nM | IC50 ([1]; isolate 99UGA07412MI, PBMC): 31.4 nM | IC50 ([1]; isolate BCF02, PBMC): 22 nM | IC50 ([1]; isolate CMU02, PBMC): 17.3 nM | IC50 ([1]; isolate JV1083, PBMC): 311 nM | % CA-SP1 Accumulation 10 nM SP1 V7A (pNL4-3 SP1-V7A): 38.2 (3) % | CC50 at 7 days (in vitro): > 1000 nM | CC50 (human PBMCs): > 1000 nM | % CA-SP1 Accumulation 10 nM NL4-3 (WT pNL4-3): 46.9%

C=C(C)[C@@H]1CC[C@]2(CCNCCN3CCN(Cc4cccc(Cl)c4)CC3)CC[C@]3(C)[C@H](CC[C@@H]4[C@@]5(C)CC[C@H](OC(=O)CC(C)(C)C(=O)O)C(C)(C)[C@@H]5CC[C@]43C)[C@@H]12 [Compound 51o, (3β)-17-[2-[[2-[4-(3-Chlorophenylmethyl)piperazin-1-yl]ethyl]amino]ethyl]-28-norlup-20(29)-en-3-ol, 3-(1-Hydrogen 2,2-Dimethylbutanedioate)]
IC50 ([1]; isolate 92RW009, PBMC): 60.9 nM | IC50 ([1]; isolate 92UG001, PBMC): 8.1 nM | IC50 ([1]; isolate 93BR020, PBMC): 13.2 nM | IC50 ([1]; isolate 93BR029, PBMC): 14.8 nM | IC50 ([1]; isolate 93IN101, PBMC): 24.8 nM | IC50 ([1]; isolate 99UGA07412MI, PBMC): 33.2 nM | IC50 ([1]; isolate BCF02, PBMC): 38.1 nM | IC50 ([1]; isolate CMU02, PBMC): 25 nM | IC50 ([1]; isolate JV1083, PBMC): 220 nM | % CA-SP1 Accumulation 10 nM SP1 V7A (pNL4-3 SP1-V7A): 39.4 (3) % | CC50 at 7 days (in vitro): > 1000 nM | CC50 (human PBMCs): > 1000 nM | % CA-SP1 Accumulation 10 nM NL4-3 (WT pNL4-3): 55.7%

C=C(C)[C@@H]1CC[C@]2(CCNCCN3CCN(Cc4ccc5ccccc5c4)CC3)CC[C@]3(C)[C@H](CC[C@@H]4[C@@]5(C)CC[C@H](OC(=O)CC(C)(C)C(=O)O)C(C)(C)[C@@H]5CC[C@]43C)[C@@H]12 [Compound 51r, (3β)-17-[2-[[2-[4-(2-Naphthalenylmethyl)piperazin-1-yl]ethyl]amino]ethyl]-28-norlup-20(29)-en-3-ol, 3-(1-Hydrogen 2,2-Dimethylbutanedioate)]
IC50 ([1]; isolate 92RW009, PBMC): > 1000 nM | IC50 ([1]; isolate 92UG001, PBMC): 25.5 nM | IC50 ([1]; isolate 93BR020, PBMC): 26 nM | IC50 ([1]; isolate 93BR029, PBMC): 22.3 nM | IC50 ([1]; isolate 93IN101, PBMC): 207 nM | IC50 ([1]; isolate 99UGA07412MI, PBMC): 370 nM | IC50 ([1]; isolate BCF02, PBMC): 62.3 nM | IC50 ([1]; isolate CMU02, PBMC): > 1000 nM | IC50 ([1]; isolate JV1083, PBMC): > 1000 nM | % CA-SP1 Accumulation 10 nM SP1 V7A (pNL4-3 SP1-V7A): 34.1 (3) % | CC50 at 7 days (in vitro): > 1000 nM | CC50 (human PBMCs): > 1000 nM | % CA-SP1 Accumulation 10 nM NL4-3 (WT pNL4-3): 44.3%

C=C(C)[C@@H]1CC[C@]2(CCNCCN3CCN(Cc4cccc(F)c4)CC3)CC[C@]3(C)[C@H](CC[C@@H]4[C@@]5(C)CC[C@H](OC(=O)CC(C)(C)C(=O)O)C(C)(C)[C@@H]5CC[C@]43C)[C@@H]12 [Compound 51m, (3β)-17-[2-[[2-[4-(3-Fluorophenylmethyl)piperazin-1-yl]ethyl]amino]ethyl]-28-norlup-20(29)-en-3-ol, 3-(1-Hydrogen 2,2-Dimethylbutanedioate)]
IC50 ([1]; isolate 92RW009, PBMC): 27.9 nM | IC50 ([1]; isolate 92UG001, PBMC): 7.9 nM | IC50 ([1]; isolate 93BR020, PBMC): 8.4 nM | IC50 ([1]; isolate 93BR029, PBMC): 10.8 nM | IC50 ([1]; isolate 93IN101, PBMC): 21.5 nM | IC50 ([1]; isolate 99UGA07412MI, PBMC): 17.8 nM | IC50 ([1]; isolate BCF02, PBMC): 16.7 nM | IC50 ([1]; isolate CMU02, PBMC): 18.8 nM | IC50 ([1]; isolate JV1083, PBMC): > 1000 nM | % CA-SP1 Accumulation 10 nM SP1 V7A (pNL4-3 SP1-V7A): 40.3 (3) % | CC50 at 7 days (in vitro): > 1000 nM | CC50 (human PBMCs): > 1000 nM | % CA-SP1 Accumulation 10 nM NL4-3 (WT pNL4-3): 53.7%
